Measured values: PubChem BioAssay (NCI)
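1) Cells in 96-well plates. 2) Compound, 48 h, 5 concentrations. 3) Linear interpolation between surrounding doses. 4) Unreached endpoint = highest concentration. At the TGI there is no net growth.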 Where a SMILES comes first, the peptide text is derived from it. Bridges are numbered along the chain shown (N, C = ends). The star is where a group is joined. Cbz = O=C(OCc1ccccc1)*

Legend:
Experiment in all cases: NCI-60 cell line screen, 48 h
T-47D breast = system: T-47D breast
HCT-116 colon = system: HCT-116 colon
SR leukemia = system: SR leukemia
SW-620 colon = system: SW-620 colon
786-0 renal = system: 786-0 renal
SK-MEL-2 melanoma = system: SK-MEL-2 melanoma
SF-295 CNS = system: SF-295 CNS
MDA-MB-231 breast = system: MDA-MB-231 breast
SK-MEL-5 melanoma = system: SK-MEL-5 melanoma
U251 CNS = system: U251 CNS
MDA-N = system: MDA-N
NCI/ADR-RES ovarian = system: NCI/ADR-RES ovarian
RPMI-8226 leukemia = system: RPMI-8226 leukemia
NCI-H226 lung = system: NCI-H226 lung
SK-MEL-28 melanoma = system: SK-MEL-28 melanoma
ACHN renal = system: ACHN renal

Row | Structure (SMILES) | TGI (T-47D breast) [µM] | TGI (HCT-116 colon) [µM] | TGI (SR leukemia) [µM] | TGI (SW-620 colon) [µM] | TGI (786-0 renal) [µM] | TGI (SK-MEL-2 melanoma) [µM] | TGI (SF-295 CNS) [µM] | TGI (MDA-MB-231 breast) [µM] | TGI (SK-MEL-5 melanoma) [µM] | TGI (U251 CNS) [µM] | TGI (MDA-N) [µM] | TGI (NCI/ADR-RES ovarian) [µM] | TGI (RPMI-8226 leukemia) [µM] | TGI (NCI-H226 lung) [µM] | TGI (SK-MEL-28 melanoma) [µM] | TGI (ACHN renal) [µM]
1 | CC(C)(C)N(Cc1ccccc1)C(=O)/C=C\S(=O)c1ccccc1 (stereo not given) | 22.2 | 7.05 | > 29.6 | 9.13 | 4.87 | 8.79 | 27.3 | 11.8 | 15.9 | 15.5 | 8.64 | 13.7 | 7.78 | 16.4 | 21.7 | 15.9
2 | Clc1ccc(/C=C/c2nc(-c3ccccc3)cn3c2nc2ccccc23)cc1Cl | > 100 | > 100 | > 100 | > 100 | > 100 | > 100 | – | > 100 | > 100 | > 100 | > 100 | > 100 | > 100 | > 100 | > 100 | > 100
3 | N=c1sc2ccccc2n1CCS (tested in a mixture with another compound) | > 100 | 30.5 | – | > 100 | 35.8 | 45.5 | 42 | 35.9 | 28 | 29.1 | > 100 | 45.3 | – | 35.3 | 41.4 | 31.7
4 | N#CC(C#N)=c1c(=O)c2c3ccccc3cc3cccc1c32 | > 100 | > 100 | – | > 100 | > 100 | > 100 | – | > 100 | > 100 | > 100 | > 100 | > 100 | > 100 | > 100 | > 100 | > 100
5 | O=C1CSC(c2c[nH]c3ccccc23)N1c1cccc(Cl)c1 (stereo not given) | > 100 | > 100 | – | > 100 | 47.1 | 65.2 | > 100 | 80.2 | > 100 | > 100 | > 100 | > 100 | 54.7 | > 100 | > 100 | > 100
6 | COc1ccc(/C=C/C(=O)c2cc(OC)cc(OC)c2)cc1 | 11.9 | 6.67 | – | 17.6 | 11.2 | 42.3 | 7.23 | > 28.3 | 24.2 | 7.41 | 5.33 | 9.02 | 26.1 | 31.6 | 27 | 17.7
7 | CN(C)c1cccc(-c2cc(=S)c3cc4c(cc3[nH]2)OCO4)c1 | > 100 | > 100 | > 100 | > 100 | > 100 | > 100 | > 100 | > 100 | > 100 | > 100 | 11.8 | > 100 | > 100 | > 100 | > 100 | > 100
8 | Cc1ccc2c(c1C)C(=O)C1(C2)Cc2ccc3c(c2C1=O)CCC3 (stereo not given) | > 100 | > 100 | > 100 | > 100 | > 100 | > 100 | > 100 | > 100 | > 100 | > 100 | > 100 | > 100 | > 100 | > 100 | > 100 | > 100
9 | CSC(=S)CC(O)[C@@H]1CC2c3ccccc3C1c1ccccc12 (stereo not given in full) | 37.7 | 20.9 | – | > 100 | 41.3 | – | 34.4 | 54.3 | 30.5 | 13 | 28.3 | 54.7 | 20.7 | 79.1 | 48.5 | 29.5
10 | C=C1c2nc3ccccc3n2C=C(c2ccc(OC)cc2)N1c1ccc(OCCN2CCCCC2)cc1 | > 100 | > 42.4 | 28.6 | 52.3 | > 52.5 | > 51.6 | > 100 | > 64.7 | > 58.5 | > 91.3 | > 100 | > 86.4 | 18.1 | > 96.7 | > 100 | > 81.7
11 | COc1ccc2c(c1)/C(=C/c1c(O)[nH]c(=S)[nH]c1=O)C=N2 | > 100 | > 100 | > 100 | > 100 | > 100 | > 100 | > 100 | > 100 | > 100 | > 100 | > 100 | > 100 | – | > 100 | > 100 | > 100
12 | COc1cc2nc3n(c2cc1OC)C(O)c1c(Cl)nc(SC)nc1S3 (stereo not given) | > 59 | 10.3 | > 100 | 22.8 | 7.85 | > 27.2 | > 94.5 | > 81 | 8.94 | 26.3 | 24 | 18.7 | > 37 | 28 | 23.2 | 42.2
13 | CC(C)=CCC[C@@H](C)[C@H]1CC[C@@]2(C)[C@@H]3CC[C@H]4C(C)(C)[C@@H](O)CC[C@@]45C[C@@]35CC[C@]12C | > 100 | > 77.9 | > 67.1 | > 100 | > 61.6 | > 100 | > 78.7 | > 64.6 | > 64.4 | 31.1 | > 100 | 62.1 | > 88.7 | > 74.5 | > 100 | > 73.1
14 | C=CCN1C(=O)CC2[C@@H]3CCc4cc(O)ccc4C3CC[C@]2(C)C1=O (stereo not given in full) | > 10 | > 10 | > 10 | > 10 | > 10 | > 10 | > 10 | > 10 | > 10 | > 10 | > 10 | > 10 | > 10 | > 10 | > 10 | > 10
15 | COc1cc(CN=c2nc(N(C)C)ss2)cc(OC)c1OC | > 10 | > 10 | 3.38 | > 10 | > 5.44 | – | > 10 | > 10 | > 10 | > 10 | > 10 | > 10 | > 7.37 | > 10 | > 10 | > 10
16 | CN1CCN(c2cc3[nH]c4cc(O)cc(O)c4c(=O)c3cc2N)CC1 | > 100 | > 100 | 21 | 65.3 | > 100 | 70.7 | > 100 | 3.32 | 50.1 | 68.5 | 69 | > 100 | 49.2 | 5.25 | 83.4 | > 100
17 | C#CCOC(=O)C(N)CC(N)=O (stereo not given) | > 100 | > 100 | > 100 | > 100 | > 100 | > 100 | > 100 | > 100 | > 100 | > 100 | > 100 | > 100 | > 100 | > 100 | > 100 | > 100
18 | Cc1ccc(-c2n[nH]c(=O)n2/N=C\c2ccccc2O)cc1 | > 100 | > 100 | > 100 | > 100 | > 100 | > 100 | > 100 | > 100 | > 100 | > 100 | > 100 | > 100 | > 100 | > 100 | > 100 | > 100
19 | C#CCN(Cc1ccc2nc(-c3ccccc3)c(Cl)nc2c1)c1ccc(F)cc1 | > 100 | > 100 | > 100 | > 100 | > 100 | > 100 | > 100 | > 100 | > 100 | > 100 | > 100 | > 100 | > 100 | – | > 100 | > 100
20 | CCC(C)N1CN(c2ccccc2)C2(CCN(CC3COc4ccccc4O3)CC2)C1=O (stereo not given) | 51.3 | 32 | 76 | 58.8 | 35.5 | – | 39.1 | > 100 | 28.9 | 38.7 | 64.1 | 44.1 | 47.2 | 52.3 | > 100 | > 100
21 | COc1ccc2c(-c3csc(-c4c[nH]c5ccc(Br)cc45)n3)c[nH]c2c1 | > 100 | > 100 | – | > 100 | > 100 | > 100 | > 100 | 83.1 | > 100 | > 100 | 30.8 | > 100 | > 100 | > 100 | > 100 | > 100
22 | COC(=NC(C)C)NC(C)C | > 100 | > 100 | > 100 | > 100 | > 100 | > 100 | – | > 100 | > 100 | > 100 | > 100 | > 100 | > 100 | > 100 | > 100 | > 100
23 | O=C1Cc2c(-c3cccs3)cc(-c3ccccc3)nc2-c2ccccc2N1 | > 100 | > 100 | > 100 | > 100 | > 100 | > 100 | > 100 | > 100 | > 100 | – | > 100 | > 100 | > 100 | > 100 | > 100 | > 100
24 | CNC(=O)C1CCCCNC(=O)CCC(NC(=O)OCc2ccccc2)C(=O)N1 (stereo not drawn) (Cbz-Glu-Lys-NHMe; lactam 1-2; configuration not given here) | > 100 | > 100 | – | > 100 | > 100 | > 100 | > 100 | > 100 | > 100 | > 100 | > 100 | > 100 | > 100 | > 100 | > 100 | > 100
25 | CN(C)CCNc1ccc(NCC[N+](C)(C)Cc2ccc([N+](=O)[O-])cc2)c2c1C(=O)c1c(O)ccc(O)c1C2=O | > 100 | > 100 | – | > 100 | > 100 | > 100 | – | > 100 | 47.5 | > 100 | 69 | > 100 | > 100 | > 100 | > 100 | –
26 | Cc1cn([C@@H]2O[C@H](CO[Si](C)(C)C(C)(C)C)[C@]3(O[C@H]3C(=O)NO)[C@H]2O[Si](C)(C)C(C)(C)C)c(=O)[nH]c1=O | 4.07 | 2.85 | – | 4.28 | 2.87 | 3.9 | 3.4 | 4.19 | 3.58 | 3.07 | 3.01 | 18.5 | 2.84 | 3.69 | 3.33 | 3.06
27 | COC(=O)C(=O)C(C(=O)C(=O)Nc1ccc(Cl)c(Cl)c1)c1nc2ccc(C(=O)c3ccccc3)cc2[nH]c1=O (stereo not given) | > 100 | > 100 | – | > 100 | > 100 | > 100 | > 100 | > 100 | > 100 | > 100 | > 100 | > 100 | > 100 | > 100 | > 100 | > 100
28 | COC(=O)C(Cc1ccccc1)NC(=O)CSc1nnc(COc2ccc(Cl)cc2)n1-c1ccccc1 (stereo not given) | > 100 | 54.6 | > 100 | > 100 | 29.8 | 33.2 | – | 41.8 | 31.4 | 32.9 | 43.7 | 55.2 | 73.5 | > 100 | 78.6 | 30.4
29 | Cc1cn2cc(-c3cccs3)nc2s1 | > 100 | > 100 | > 100 | > 100 | > 100 | > 100 | > 100 | > 100 | > 100 | > 100 | > 100 | – | > 100 | > 100 | > 100 | > 100
